Assay results: PMC4710522, “A Novel Triazolopyridine-Based Spleen Tyrosine Kinase Inhibitor That Arrests Joint Inflammation” (PLoS ONE, 2016)

Legend:
[1] = target: T1, human KDR in Hek cells (Homo sapiens, UniProt P35968); experiment: KDR cellular selectivity assay (VEGF-induced KDR autophosphorylation); format: cell-based
T1 construct: host or cells: HEK293
Experimental: HEK KDR cells were plated on 96-well flat bottom plates for 16 hours in a tissue culture incubator. […] Briefly, cells on plates were lysed with Mesoscale lysis buffer (containing phosphatase/ proteinase inhibitors and 0.05% SDS), frozen at -80°C for 2 hours, and then placed on an orbital shaker at 4°C for 16 hours. Cell lysate was transferred to a blocked phopsho-KDR plate, incubated at room temperature for 2 hours, washed twice, and blotted dry. The detection antibody was added to all wells on the plate, incubated for 2 hours at room temperature on an orbital shaker, and plate was washed three times. Diluted Mesoscale detection solution was added to each well and the plates were read on the Sector Imager instrument (Mesoscale, Gaithersberg, MD).

[2] = target: T2, KDR (Homo sapiens, UniProt P35968); experiment: KDR HTRF assay; format: biochemical; conditions: in-house, mean ± SD
T2 construct: purchased Life Technologies PV3660
T2 sequence (P35968 20-1356): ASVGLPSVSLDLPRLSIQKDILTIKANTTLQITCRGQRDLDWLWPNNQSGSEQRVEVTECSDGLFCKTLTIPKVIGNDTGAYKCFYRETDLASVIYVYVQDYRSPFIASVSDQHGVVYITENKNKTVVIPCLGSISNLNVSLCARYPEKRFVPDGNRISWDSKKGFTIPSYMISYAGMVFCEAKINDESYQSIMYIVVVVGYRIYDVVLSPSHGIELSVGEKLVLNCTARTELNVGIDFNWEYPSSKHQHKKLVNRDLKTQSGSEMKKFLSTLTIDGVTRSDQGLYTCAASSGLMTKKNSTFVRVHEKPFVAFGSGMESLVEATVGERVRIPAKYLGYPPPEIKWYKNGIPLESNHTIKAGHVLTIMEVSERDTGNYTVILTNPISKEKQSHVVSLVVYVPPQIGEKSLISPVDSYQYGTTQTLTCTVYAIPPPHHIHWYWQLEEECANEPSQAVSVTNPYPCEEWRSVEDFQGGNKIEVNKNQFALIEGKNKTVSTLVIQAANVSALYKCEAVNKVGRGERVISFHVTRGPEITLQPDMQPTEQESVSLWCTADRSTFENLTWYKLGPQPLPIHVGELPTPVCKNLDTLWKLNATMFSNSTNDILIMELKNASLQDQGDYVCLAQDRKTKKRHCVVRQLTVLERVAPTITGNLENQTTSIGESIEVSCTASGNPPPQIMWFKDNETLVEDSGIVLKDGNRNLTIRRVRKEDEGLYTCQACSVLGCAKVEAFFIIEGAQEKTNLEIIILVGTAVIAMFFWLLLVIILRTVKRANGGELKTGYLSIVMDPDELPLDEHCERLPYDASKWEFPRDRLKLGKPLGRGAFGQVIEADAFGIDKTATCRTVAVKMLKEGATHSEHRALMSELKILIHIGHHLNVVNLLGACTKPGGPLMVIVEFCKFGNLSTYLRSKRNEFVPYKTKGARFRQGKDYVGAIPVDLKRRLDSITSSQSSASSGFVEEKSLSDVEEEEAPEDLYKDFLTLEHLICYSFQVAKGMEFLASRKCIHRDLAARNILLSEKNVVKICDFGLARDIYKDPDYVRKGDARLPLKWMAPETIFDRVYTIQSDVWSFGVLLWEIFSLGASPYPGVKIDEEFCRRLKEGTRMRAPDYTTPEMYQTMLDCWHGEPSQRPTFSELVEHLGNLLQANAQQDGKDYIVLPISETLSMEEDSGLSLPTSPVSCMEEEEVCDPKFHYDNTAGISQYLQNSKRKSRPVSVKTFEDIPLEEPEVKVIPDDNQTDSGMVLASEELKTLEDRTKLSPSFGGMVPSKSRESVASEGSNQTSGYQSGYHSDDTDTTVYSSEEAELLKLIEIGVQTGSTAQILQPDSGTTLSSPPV
Experimental: CC-509 was prepared at a concentration of 1.5 mM in DMSO followed by 3-fold dilutions in Greiner […] polypropylene plates. A 1:4 dilution of compounds by 8 μL/well transfer from the polypropylene plates to 24 μL/well Assay Buffer (50 mM HEPES pH 7.6, 1 mM DTT, 10 mM MgCl2, 0.01% Triton X-100, 0.01% BSA and 0.1 mM EDTA) in Costar 3573 384 well black plates was then performed. Kinase (13 μL/well of 7.7 ng/ml KDR (Life Technologies, Grand Island, NY PV3660) in Assay Buffer) or Assay Buffer only (background controls) were added to Costar 3573 384-well black plates and compound (2 μL/ well) was added from the 1:4 dilution plate. […] Time resolved fluorescence was read in assay plates on a PerkinElmer EnVision. […] The IC50 value was determined as described in the data fitting section below.
For the TEL-Syk assay, the intensity values for the 700 and 800 channel were exported as text files in ActivityBase (IDBS, Guildford, UK) to derive the ratios that reflect kinase activity. […] For the JAK2 HEL and Ramos NFAT β-lactamase assays, the fluorescence values obtained at 460 nm and 530 nm were exported into ActivityBase to calculate response ratios. […] Evans blue dye extravasation was expressed as mean ± SEM and % inhibition for the test article groups was normalized to the cromolyn positive control. […] Data is expressed as mean ± SEM of each group with n = 6–12. […]

[3] = target: T3, CK2-alpha2_h (Homo sapiens, UniProt P19784); experiment: SelectScreen kinase assay; format: biochemical; conditions: KM ATP, read-out: % control
T3 construct: purchased Life Technologies (Invitrogen) SelectScreen, Z'-LYTE / Adapta
T3 sequence (P19784 whole entry): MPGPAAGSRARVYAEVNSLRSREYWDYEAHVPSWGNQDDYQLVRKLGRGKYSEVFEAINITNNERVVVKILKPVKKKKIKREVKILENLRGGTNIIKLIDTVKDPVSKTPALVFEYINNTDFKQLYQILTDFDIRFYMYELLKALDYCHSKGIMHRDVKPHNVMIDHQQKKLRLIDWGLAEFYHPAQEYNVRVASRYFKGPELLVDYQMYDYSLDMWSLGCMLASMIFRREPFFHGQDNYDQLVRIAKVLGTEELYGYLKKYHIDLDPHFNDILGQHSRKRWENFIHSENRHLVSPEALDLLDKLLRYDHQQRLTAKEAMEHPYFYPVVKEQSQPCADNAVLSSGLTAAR

[4] = system: rat passive cutaneous anaphylaxis model; experiment: rat passive cutaneous anaphylaxis (PCA) model; format: in vivo
Experimental: On day 0, male CD-IGS rats (170 – 190g; Charles River Laboratories) were anesthetized with isofluorane, their dorsal region shaved and 50 μl Anti-DNP-IgE (Clone SPE-7, Sigma, St. Louis, MO) that had been diluted 1:1000 in saline was injected via the intradermal route at 3 individual spots along the right side of the back. Saline was injected via the intradermal route at 3 individual spots along the left side of the back as a sham control. Twenty-four hours later, 200 μl of BSA-DNP (Calbiochem, San Diego, CA), prepared (1 mg prepared in a 2% solution of Evans blue dye: Sigma Chemicals, St. Louis, MO) was injected via the IV route via the tail vein. Thirty minutes after the BSA-DNP challenge the experiment was terminated and skin samples from the middle of each injection site taken for Evans blue dye measurement at an OD measurement at 620nm on a plate reader following incubation (2h at 90°C) and homogenization in formamide (Sigma Chemicals, St. Louis, MO). Vehicle (20% Captisol® (Captisol), PO), the positive control (Cromolyn: Sigma Chemicals, St. Louis, MO 100mg/kg, 2mL/kg, IV) or CC0484509 (3 and 10mg/kg, PO) were dosed 1h prior to the IV challenge with BSA-DNP.
For the TEL-Syk assay, the intensity values for the 700 and 800 channel were exported as text files in ActivityBase (IDBS, Guildford, UK) to derive the ratios that reflect kinase activity. For LAD2 experiments, enzyme activity values were exported as text files into ActivityBase to calculate “percent release” according to the formula: 100* supernatant OD405/ (supernatant OD405 + (pellet OD405*pellet dilution factor)). For the basophil and B-cells assays, flow cytometry data was exported from the FACS Array and processed using FloJo software package (TreeStar, Inc., Ashland, Oregon). For the JAK2 HEL and Ramos NFAT β-lactamase assays, the fluorescence values obtained at 460 nm and 530 nm were exported into ActivityBase to calculate response ratios. For the neutrophil, macrophage, KDR, and JAK1/3 assays, raw values were exported into ActivityBase to calculate percent inhibition. All IC50 calculations were generated using XLfit (IDBS, Guildford, UK) algorithm 205 within Excel. For PCA, the OD from the saline injected site was subtracted from the OD from the anti-DNP IgE injected site. Evans blue dye extravasation was expressed as mean ± SEM and % inhibition for the test article groups was normalized to the cromolyn positive control. For the CIA model paw measurements (left and right ankle diameter) were taken for each individual animal and averaged. The mean data from each group was plotted and either the AUC(day 11–18) or % inhibition on day 18 was calculated. Data is expressed as mean ± SEM of each group with n = 6–12. […]

[5] = system: Tel-Syk expressing BaF3 cells; experiment: Tel-Syk BaF3 viability assay (growth factor-independent growth); format: cell-based, murine; conditions: Mus musculus; Tel-Syk BaF3, absence of IL-3
Experimental: HEK293 T-REx™ (Life Technologies, Grand Island, NY) stably transfected with human TEL-Syk (cloned as described prior section DNA constructs) were plated on black poly-D-lysine coated 96-well plates (BD Biosciences, San Diego, CA) in culture media containing tetracycline-free fetal bovine serum (Clontech, MountainView, CA) for 16 hours in a tissue culture incubator. Tel-Syk expression was induced for 6 hours in fresh growth media containing 1 μg/ml tetracycline (Sigma Chemicals, St. Louis, MO). Plates were preincubated with CC-509 for 90 minutes, fixed immediately with 4% formaldehyde in 1X PBS for 20 min at room temperature, and washed/permeabilized 5-times with PBS containing 0.1% Triton X-100. Plates were blocked with Odyssey Blocking Buffer for 90 minutes at room temperature and incubated overnight at 4°C on a rotating platform with rabbit phospho-Syk (1:1000) and mouse V5 (1:2500) primary antibodies diluted in Odyssey Blocking Buffer. […] Viability of BaF/3 cells expressing Tel-Syk grown in the absence of murine IL-3 was measured using Cell-Titer Glo reagent (Promega, Madison, WI), as described by supplier.

T1 sequence (P35968 20-1356): as the sequence (P35968 20-1356) above

For c1cc(CC2CCOCC2)n2nc(Nc3ccc4c(NC5CCOCC5)n[nH]c4c3)nc2c1 [CC-509, [3-(2H-3,4,5,6-tetrahydropyran-4-ylamino)(1H-indazol-6-yl)][5-(2H-3,4,5,6-tetrahydropyran-4-ylmethyl)(2H-1,2,4-triazolo[1,5-a]pyridin-2-yl)]amine], which IC50 ([1]; Hek cells) is on record?
Its IC50 is 7.43 ± 3.36 µM.

And the “fold difference in potency between R406 and CC-509, KDR cellular assay” value ([1]; R406 more potent)?
Its value is 10 fold.

What about the IC50 [2] of the same compound?
The IC50 was 0.15 ± 0.03 µM.

What about the remaining activity at 3 µM [3] of the same compound?
Its remaining activity at 3 µM is 97%.

What about the “inhibition of skin edema, normalized to cromolyn” value ([4]; 3 mg/kg PO, not statistically significant) of the same compound?
The value was 26%.

And the “inhibition of skin edema, normalized to cromolyn” value ([4]; 10 mg/kg PO, p<0.01)?
Its value is 81%.

What about the ED50 ([4]; Rattus norvegicus, PCA model, dye extravasation) of the same compound?
The ED50 was roughly 5 mg/kg.

And the IC50 [5]?
The IC50 was 1.61 ± 0.41 µM.
